Results from ChEMBL document CHEMBL1201862, “PubChem BioAssay data set” (2004).
Calls of active or inactive are those of the source.

Legend:
HEK293 = experiment: Fluorescence-based counterscreen for potentiators or agonists of NPY-Y2: cell-based high-throughput dose response assay to identify inhibitors of cyclic nucleotide gated ion channel (CNGC) activity. In this assay, the parental HEK293 cell line transfected with a cyclic-nucleotide gated ion channel (CNGC)-based cAMP sensor is used to measure inhibition of isoproterenol-induced CNGC activity by test compound.; assay type: functional; conditions: Homo sapiens;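 also: stimulus is 1 µM isoproterenol at EC100 plus PDE inhibitor Ro 20-1724 at 25 µM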
[1] = biological target: Neuropeptide Y receptor type 2 (Homo sapiens, UniProt P49146); experiment: Fluorescence-based cell-based high-throughput dose response assay for agonists of NPY-Y2. [Related pubchem assays: 1703 (Screening assay (CNGC inhibitors).), 1359 (Screening assay (NPY-Y2 potentiators or agonists).), 1304 (Screening assay (NPY-Y1 potentiators or agonists).), 1710 (Screening assay (NPY-Y2 agonists).), 1791 (Summary AID.)]; assay type: functional
Chain of Neuropeptide Y receptor type 2 (P49146 whole entry): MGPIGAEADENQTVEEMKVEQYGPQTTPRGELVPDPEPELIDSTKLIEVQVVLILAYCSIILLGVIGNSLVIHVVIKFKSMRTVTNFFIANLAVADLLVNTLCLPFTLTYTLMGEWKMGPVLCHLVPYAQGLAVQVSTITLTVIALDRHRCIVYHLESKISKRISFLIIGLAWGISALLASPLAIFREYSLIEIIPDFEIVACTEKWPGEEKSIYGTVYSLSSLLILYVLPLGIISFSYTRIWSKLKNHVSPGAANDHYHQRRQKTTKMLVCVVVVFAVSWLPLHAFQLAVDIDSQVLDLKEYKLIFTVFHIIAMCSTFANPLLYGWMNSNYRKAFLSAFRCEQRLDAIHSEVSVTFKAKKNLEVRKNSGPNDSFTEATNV

[2] = biological target: Neuropeptide Y receptor type 1 (Homo sapiens, UniProt P25929); experiment: Fluorescence-based counterscreen for agonists of NPY-Y2: cell-based high-throughput dose response assay for agonists of NPY-Y1.; assay type: functional
Chain of Neuropeptide Y receptor type 1 (P25929 whole entry): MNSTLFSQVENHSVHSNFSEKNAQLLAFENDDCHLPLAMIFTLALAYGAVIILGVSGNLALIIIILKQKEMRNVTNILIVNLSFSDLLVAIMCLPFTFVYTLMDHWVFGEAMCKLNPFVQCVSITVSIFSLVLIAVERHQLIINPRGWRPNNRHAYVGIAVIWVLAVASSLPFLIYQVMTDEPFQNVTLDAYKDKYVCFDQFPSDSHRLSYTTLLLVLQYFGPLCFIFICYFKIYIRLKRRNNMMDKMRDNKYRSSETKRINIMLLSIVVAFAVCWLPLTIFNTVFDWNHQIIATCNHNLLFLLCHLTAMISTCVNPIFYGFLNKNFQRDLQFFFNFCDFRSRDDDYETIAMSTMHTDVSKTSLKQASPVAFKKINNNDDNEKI

Mucolipin-3 = Mucolipin-3 (Homo sapiens, UniProt Q8TDD5); experiment: Dose response cell-based high-throughput screening assay for agonists of the transient receptor potential channel ML3 (TRPML3). [Related pubchem assays: 1526, 1424, 1448 ]; assay type: functional
Chain of Mucolipin-3 (Q8TDD5 whole entry): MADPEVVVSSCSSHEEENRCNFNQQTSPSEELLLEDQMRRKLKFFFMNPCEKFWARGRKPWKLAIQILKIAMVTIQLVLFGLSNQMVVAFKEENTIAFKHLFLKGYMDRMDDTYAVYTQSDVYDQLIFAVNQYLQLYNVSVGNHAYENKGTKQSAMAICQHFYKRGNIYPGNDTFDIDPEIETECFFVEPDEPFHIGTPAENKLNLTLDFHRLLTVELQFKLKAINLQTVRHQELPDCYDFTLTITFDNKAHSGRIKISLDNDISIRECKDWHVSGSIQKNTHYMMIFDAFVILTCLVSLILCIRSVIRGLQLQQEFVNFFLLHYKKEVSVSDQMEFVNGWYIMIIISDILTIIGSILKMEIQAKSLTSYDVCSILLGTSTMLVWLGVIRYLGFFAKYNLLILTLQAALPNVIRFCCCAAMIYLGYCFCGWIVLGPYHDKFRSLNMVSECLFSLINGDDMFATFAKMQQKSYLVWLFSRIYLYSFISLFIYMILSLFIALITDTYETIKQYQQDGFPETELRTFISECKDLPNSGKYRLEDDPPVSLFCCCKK

Ion channel NompC = Ion channel NompC (Danio rerio, UniProt Q7T1G6); experiment: Fluorescence counterscreen assay for TRPML3 agonists: dose response cell-based high-throughput screening assay to identify agonists of the transient receptor potential channel N1 (TRPN1). [Related pubchem assays: 1526, 1424, 1448 ]; assay type: functional
Chain of Ion channel NompC (Q7T1G6 whole entry): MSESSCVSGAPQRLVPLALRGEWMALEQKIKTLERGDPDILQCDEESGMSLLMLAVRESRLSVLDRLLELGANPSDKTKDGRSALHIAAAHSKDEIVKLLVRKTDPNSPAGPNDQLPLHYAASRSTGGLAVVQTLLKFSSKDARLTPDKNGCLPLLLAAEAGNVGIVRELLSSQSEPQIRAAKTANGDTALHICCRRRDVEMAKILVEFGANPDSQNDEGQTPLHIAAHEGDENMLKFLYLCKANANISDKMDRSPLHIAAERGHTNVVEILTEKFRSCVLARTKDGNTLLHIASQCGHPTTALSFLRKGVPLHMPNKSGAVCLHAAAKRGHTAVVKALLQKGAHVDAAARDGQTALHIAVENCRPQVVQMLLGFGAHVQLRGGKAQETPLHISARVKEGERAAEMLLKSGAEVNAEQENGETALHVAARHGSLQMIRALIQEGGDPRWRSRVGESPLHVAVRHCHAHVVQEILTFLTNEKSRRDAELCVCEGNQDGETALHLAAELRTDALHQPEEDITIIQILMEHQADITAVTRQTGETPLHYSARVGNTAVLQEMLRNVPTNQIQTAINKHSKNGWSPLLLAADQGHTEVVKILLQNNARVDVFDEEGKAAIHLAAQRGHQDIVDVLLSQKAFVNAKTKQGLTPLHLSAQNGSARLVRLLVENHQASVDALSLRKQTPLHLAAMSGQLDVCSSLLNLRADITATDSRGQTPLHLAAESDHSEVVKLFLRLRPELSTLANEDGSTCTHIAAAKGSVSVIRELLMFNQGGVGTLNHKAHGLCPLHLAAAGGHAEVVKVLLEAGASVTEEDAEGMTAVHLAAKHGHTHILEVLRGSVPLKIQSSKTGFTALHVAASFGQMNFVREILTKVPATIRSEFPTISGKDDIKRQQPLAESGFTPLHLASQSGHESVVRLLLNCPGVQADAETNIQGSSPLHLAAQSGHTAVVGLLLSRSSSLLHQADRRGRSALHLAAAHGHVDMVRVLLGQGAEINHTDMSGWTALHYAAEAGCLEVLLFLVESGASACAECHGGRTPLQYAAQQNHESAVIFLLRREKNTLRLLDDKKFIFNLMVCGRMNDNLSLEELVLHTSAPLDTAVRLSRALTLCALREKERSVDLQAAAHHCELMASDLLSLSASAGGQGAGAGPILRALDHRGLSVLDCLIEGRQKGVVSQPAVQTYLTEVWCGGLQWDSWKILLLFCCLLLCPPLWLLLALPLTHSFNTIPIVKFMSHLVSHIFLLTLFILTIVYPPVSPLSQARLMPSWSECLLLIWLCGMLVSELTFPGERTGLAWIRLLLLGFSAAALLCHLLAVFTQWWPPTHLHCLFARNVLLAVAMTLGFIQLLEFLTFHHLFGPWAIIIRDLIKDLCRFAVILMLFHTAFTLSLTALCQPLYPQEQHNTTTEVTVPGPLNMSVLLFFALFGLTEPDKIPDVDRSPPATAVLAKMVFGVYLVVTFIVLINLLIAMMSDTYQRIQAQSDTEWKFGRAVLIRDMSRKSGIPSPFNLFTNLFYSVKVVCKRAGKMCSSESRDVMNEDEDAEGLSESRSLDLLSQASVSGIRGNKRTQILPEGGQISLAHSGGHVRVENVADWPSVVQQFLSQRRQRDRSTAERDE

[3] = biological target: Eukaryotic translation initiation factor 4H (Homo sapiens, UniProt Q15056); experiment: human eIF4H binding inhibitors, primary screen, translation initiation inhibitor project, biochemical, uHTS, fluorescence polarization (AID 2012)
[4] = biological target: Polyadenylate-binding protein 1 (Homo sapiens, UniProt P11940); experiment: PABP poly(A) RNA binding inhibitors, primary screen, biochemical, fluorescence polarization, uHTS (AID 2014)
Chain of Polyadenylate-binding protein 1 (P11940 whole entry, the tested form may be a part): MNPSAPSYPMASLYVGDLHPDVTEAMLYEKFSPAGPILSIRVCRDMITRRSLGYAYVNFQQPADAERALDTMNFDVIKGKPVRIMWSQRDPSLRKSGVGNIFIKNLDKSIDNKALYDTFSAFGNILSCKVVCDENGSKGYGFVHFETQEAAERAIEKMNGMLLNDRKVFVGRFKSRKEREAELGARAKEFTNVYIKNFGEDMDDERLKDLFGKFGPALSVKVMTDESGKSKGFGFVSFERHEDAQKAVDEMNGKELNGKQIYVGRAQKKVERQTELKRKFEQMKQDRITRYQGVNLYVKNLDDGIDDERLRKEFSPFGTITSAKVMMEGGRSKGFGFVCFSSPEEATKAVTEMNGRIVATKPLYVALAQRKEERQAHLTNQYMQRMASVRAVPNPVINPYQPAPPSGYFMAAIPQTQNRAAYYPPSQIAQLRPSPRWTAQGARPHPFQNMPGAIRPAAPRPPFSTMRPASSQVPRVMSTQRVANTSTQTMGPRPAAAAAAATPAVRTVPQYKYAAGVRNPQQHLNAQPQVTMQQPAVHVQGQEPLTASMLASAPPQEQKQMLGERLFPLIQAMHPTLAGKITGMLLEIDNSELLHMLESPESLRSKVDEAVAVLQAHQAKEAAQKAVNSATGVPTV

[5] = biological target: T1, RNA-binding protein pos-1 (Caenorhabditis elegans, UniProt G5EF15); experiment: inhibitors of POS-1/mex-3 RNA binding, dose response, biochemical, fluorescence polarization (AID 1964);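 also: purified POS-1 fused to maltose binding protein made in E. coli; potency of compounds blocking POS-1 binding to fluorescent RNA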
T1 sequence (G5EF15 whole entry): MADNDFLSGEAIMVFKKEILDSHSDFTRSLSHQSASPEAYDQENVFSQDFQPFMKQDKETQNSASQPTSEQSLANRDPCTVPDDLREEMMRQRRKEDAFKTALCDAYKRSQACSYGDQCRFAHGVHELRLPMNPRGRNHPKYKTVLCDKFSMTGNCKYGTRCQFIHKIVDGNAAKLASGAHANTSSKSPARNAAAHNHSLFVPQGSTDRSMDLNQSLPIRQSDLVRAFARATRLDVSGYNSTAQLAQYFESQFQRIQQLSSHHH

[6] = biological target: T2, Zinc finger protein mex-5 (Caenorhabditis elegans, UniProt Q9XUB2); experiment: MEX-5/TCR-2 RNA interaction inhibitors, dose response, biochemical, C. elegans, fluorescence polarization (AID 1960)
T2 sequence (Q9XUB2 whole entry): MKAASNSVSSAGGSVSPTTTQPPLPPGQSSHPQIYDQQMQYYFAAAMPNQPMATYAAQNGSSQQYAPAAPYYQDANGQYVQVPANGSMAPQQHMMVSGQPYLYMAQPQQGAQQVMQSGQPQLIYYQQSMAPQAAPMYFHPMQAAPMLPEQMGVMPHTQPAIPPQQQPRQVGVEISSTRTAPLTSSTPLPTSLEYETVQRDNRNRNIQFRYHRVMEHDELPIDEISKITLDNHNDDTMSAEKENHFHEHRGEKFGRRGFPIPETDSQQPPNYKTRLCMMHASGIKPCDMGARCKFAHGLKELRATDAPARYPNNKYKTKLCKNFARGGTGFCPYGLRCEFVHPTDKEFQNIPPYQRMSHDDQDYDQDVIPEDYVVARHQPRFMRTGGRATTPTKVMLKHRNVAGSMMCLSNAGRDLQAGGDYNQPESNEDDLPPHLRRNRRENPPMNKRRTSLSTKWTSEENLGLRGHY

[7] = growth suppression of PTEN-null colon cells, dose response, cell-based, HCT116 PTEN knockout (AID 1047); assay type: functional;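 also: HCT116 colon tumor cells with PTEN knocked out; cells exposed to compound for 60 hours before readout; potency for loss of cell viability measured by luminescence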
Estrogen receptor beta = Estrogen receptor beta (Homo sapiens, UniProt Q92731); experiment: ERβ–SRC-3 coactivator interaction inhibitors, confirmation, orthogonal assay, biochemical, ELISA, streptavidin-HRP readout (AID 1060)
Chain of Estrogen receptor beta (Q92731 whole entry): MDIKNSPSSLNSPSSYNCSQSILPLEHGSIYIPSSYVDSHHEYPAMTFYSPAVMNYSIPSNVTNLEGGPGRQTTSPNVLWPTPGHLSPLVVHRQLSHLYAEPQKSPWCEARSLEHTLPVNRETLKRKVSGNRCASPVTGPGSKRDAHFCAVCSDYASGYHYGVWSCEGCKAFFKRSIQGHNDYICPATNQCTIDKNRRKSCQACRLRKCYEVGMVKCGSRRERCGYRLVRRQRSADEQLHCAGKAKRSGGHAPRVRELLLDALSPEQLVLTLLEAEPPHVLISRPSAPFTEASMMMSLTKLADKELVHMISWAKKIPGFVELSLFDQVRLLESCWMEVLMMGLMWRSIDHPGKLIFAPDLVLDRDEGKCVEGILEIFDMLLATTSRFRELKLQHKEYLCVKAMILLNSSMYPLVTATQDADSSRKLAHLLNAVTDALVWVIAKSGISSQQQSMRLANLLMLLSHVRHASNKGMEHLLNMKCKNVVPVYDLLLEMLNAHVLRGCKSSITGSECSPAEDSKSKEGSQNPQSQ

[8] = growth suppression of beta-catenin-knockout colon cells, dose response, cell-based, HCT116, human colon tumor (AID 1045); assay type: functional;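 also: HCT116 colon tumor cells with beta catenin knocked out; cells exposed to compound for 60 hours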
[9] = biological target: Eukaryotic translation initiation factor 4E (Mus musculus, UniProt P63073); experiment: eIF4E–eIF4G protein interaction inhibitors, dose response, biochemical, TR-FRET (AID 855); assay type: functional;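 also: potency for disrupting eIF4E binding to eIF4GI seen as loss of FRET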
Chain of Eukaryotic translation initiation factor 4E (P63073 whole entry): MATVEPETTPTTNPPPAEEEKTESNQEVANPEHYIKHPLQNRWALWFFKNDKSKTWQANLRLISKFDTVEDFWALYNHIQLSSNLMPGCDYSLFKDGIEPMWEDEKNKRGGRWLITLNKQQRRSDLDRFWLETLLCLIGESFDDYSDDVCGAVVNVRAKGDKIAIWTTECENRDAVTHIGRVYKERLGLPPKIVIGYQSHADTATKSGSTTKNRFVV

[10] = biological target: T3, Replicative DNA helicase DnaB (Mycobacterium tuberculosis, UniProt P9WMR3); experiment: DnaB intein splicing inhibitors, dose response, biochemical, cell-free fluorescence (AID 449749); assay type: functional
T3 sequence (P9WMR3 whole entry): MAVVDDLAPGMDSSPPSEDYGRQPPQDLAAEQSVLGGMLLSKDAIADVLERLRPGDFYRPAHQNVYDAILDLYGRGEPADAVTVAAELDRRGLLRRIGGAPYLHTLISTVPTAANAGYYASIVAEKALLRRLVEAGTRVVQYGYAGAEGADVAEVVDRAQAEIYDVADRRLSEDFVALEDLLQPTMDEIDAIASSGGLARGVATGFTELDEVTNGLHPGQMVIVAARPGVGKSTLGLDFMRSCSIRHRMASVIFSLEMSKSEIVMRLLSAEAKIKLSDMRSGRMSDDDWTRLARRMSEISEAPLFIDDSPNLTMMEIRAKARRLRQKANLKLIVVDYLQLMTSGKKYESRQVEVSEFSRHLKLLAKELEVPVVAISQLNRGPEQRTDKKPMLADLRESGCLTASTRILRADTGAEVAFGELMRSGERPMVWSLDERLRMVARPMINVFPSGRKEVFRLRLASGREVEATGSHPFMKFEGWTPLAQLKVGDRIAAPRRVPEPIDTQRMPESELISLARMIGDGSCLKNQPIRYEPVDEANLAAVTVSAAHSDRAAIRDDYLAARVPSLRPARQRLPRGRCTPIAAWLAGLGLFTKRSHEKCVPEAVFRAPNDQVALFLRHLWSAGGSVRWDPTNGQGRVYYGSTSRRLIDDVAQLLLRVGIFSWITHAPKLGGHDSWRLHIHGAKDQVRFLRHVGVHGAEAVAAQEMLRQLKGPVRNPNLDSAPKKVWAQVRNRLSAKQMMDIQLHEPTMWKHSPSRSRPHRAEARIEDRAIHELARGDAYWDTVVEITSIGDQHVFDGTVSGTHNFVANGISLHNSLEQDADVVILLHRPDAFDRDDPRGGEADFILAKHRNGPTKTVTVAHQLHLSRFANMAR

Protein RecA = biological target: T4, Protein RecA (Mycobacterium tuberculosis, UniProt P9WHJ3); experiment: Fluorescence Cell-Free Homogeneous Dose Retest to Identify Inhibitors of RecA-Intein Splicing Activity. [Related pubchem assays (depositor defined):AID2097, AID2223, AID489010, AID492950]; assay type: functional
T4 sequence (P9WHJ3 whole entry): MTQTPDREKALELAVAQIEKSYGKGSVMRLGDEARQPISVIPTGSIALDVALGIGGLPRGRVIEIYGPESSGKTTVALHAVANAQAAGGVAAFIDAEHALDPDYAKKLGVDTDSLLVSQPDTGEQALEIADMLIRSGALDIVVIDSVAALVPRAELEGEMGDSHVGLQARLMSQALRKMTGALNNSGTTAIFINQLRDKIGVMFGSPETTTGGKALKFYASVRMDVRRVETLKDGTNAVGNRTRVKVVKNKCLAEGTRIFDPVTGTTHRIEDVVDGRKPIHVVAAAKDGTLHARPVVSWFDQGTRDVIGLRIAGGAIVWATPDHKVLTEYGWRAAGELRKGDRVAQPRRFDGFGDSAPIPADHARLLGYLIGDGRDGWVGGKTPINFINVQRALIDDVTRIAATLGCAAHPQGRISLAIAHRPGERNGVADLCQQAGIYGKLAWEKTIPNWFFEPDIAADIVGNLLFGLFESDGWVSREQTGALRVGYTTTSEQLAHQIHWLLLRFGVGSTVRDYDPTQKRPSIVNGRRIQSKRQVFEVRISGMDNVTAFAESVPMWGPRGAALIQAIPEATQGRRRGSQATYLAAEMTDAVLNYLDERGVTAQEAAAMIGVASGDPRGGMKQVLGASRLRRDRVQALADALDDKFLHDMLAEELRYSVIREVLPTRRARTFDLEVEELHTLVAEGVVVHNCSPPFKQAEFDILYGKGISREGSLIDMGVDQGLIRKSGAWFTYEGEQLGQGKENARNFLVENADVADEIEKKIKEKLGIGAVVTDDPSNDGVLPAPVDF

Which results are given for `CC(C)c1nnc(NC(=O)CCC(=O)Nc2ccc3c[nH]nc3c2)s1`?
EC50 (HEK293): > 35.4 µM (not active); EC50 [1]: > 35.4 µM (not active); EC50 [2]: > 35.4 µM (not active)

Which results are given for `O=C(C1Cc2ccccc2CN1S(=O)(=O)c1ccc(F)cc1)N1CCCCC1` (centres undefined)?
EC50 (Mucolipin-3): 2.06 µM (active); EC50 (Ion channel NompC): 13.3 µM (not active)

For `CC1CCN(S(=O)(=O)c2ccc3ccccc3c2)CC1`, which EC50 (Mucolipin-3) is on record?
The EC50 was 2.83 µM (active).

What about the EC50 (Ion channel NompC) of the same compound?
The EC50 was > 29.9 µM (not active).

With `C[N+]1=C2c3ccccc3N=CN2CC1` as the compound, how does the IC50 [3] read?
The IC50 was > 100 µM (inactive).

And the IC50 [4]?
Its IC50 is 4.47 µM (active).

For `CN1CCN(C2=C(Cl)C(=O)C(c3cnc(N4CCCCC4)s3)=C(Cl)C2=O)CC1`, which EC50 [5] is on record?
Its EC50 is 5.11 µM (active).

And the EC50 [6]?
Its EC50 is 4.18 µM (active).

What about the EC50 [7] of the same compound?
Its EC50 is 10.1 µM (active).

What about the IC50 (Estrogen receptor beta) of the same compound?
Its IC50 is 0.63 µM (not active).

And the EC50 [8]?
Its EC50 is 8.57 µM (active).

And the IC50 [9]?
Its IC50 is 19.2 µM (inactive).

And the AC50 [10]?
Its AC50 is > 380 µM (inactive).

What about the EC50 (Protein RecA) of the same compound?
The EC50 was 1.29 µM (active).

What does the source list for `CCN(CC)C(=O)CC(c1ccc2c(c1)OCO2)c1c(OC)cc(OC)c2ccc(=O)oc12` (centres undefined)?
IC50 [3]: 10.3 µM (active); IC50 [4]: 20.1 µM (active)
